Measured values taken from patent publication US20080200448A1, “New Pyridine Analogues VIII 518” (ASTRAZENECA AB, priority 2007, published 2008).

Biological target: T1, P2Y12 receptor (Homo sapiens, UniProt Q9H244)
T1 construct: expressed in transfected cells; host or cells: CHO cells (membrane preparation)
Assay: Functional inhibition of 2-Me-S-ADP induced P2Y12 signalling (35S-GTPγS binding, cell membranes)
Format: biochemical
Settings: 35S-GTPγS assay, membranes, EC80 concentration of 2-methyl-thio-adenosine diphosphate, 30° C. for 45 min; read-out: GTPγS (IC50 μM)
Description: Functional inhibition of- the P2Y12 receptor can be measured by in vitro assays using cell membranes from P2Y12 transfected CHO-cells, the methodology is indicated below.
Functional inhibition of 2-Me-S-ADP induced P2Y12 signalling: 5 μg of membranes were diluted in 200 μl of 200 mM NaCl, 1 mM MgCl2, 50 mM HEPES (pH 7.4), 0.01% BSA, 30 μg/ml saponin and 10 μM GDP. To this was added an EC80 concentration of agonist (2-methyl-thio-adenosine diphosphate), the required concentration of test compound and 0.1 μCi ^35S-GTPγS. The reaction was allowed to proceed at 30° C. for 45 min. Samples were then transferred on to GF/B filters using a cell harvester and washed with wash buffer (50 mM Tris (pH 7.4), 5 mM MgCl2, 50 mM NaCl). Filters were then covered with scintilant and counted for the amount of ^35S-GTPγS retained by the filter. Maximum activity was that determined in the presence of the agonist and minimum activity in the absence of the agonist following subtraction of the value determined for non-specific activity. The effect of compounds at various concentrations was plotted according to the equation
y=A+((B−A)/(1+((C/x)̂D)))
and IC50 estimated where A is the bottom plateau of the curve i.e. the final minimum y value B is the top of the plateau of the curve i.e. the final maximum y value C is the x value at the middle of the curve. This represents the log EC50 value when A+B=100 D is the slope factor. x is the original known x values. Y is the original known y values.

T1 sequence (Q9H244 whole entry): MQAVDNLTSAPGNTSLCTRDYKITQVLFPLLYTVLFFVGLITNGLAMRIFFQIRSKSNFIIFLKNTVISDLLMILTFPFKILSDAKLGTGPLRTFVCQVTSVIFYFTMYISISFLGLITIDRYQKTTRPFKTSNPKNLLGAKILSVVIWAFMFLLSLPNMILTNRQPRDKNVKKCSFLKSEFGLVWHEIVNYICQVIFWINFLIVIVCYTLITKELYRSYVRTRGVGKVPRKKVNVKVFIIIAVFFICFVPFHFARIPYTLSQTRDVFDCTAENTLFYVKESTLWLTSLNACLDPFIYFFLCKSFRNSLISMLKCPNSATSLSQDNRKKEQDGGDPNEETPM

Compared with `CC(C)OC(=O)c1cc(C#N)c(N2CCC(C(=O)NS(=O)(=O)Nc3ccc(F)cc3)CC2)nc1CN1CCCC1=O` [Example 80, Isopropyl 5-cyano-6-[4-({[(4-fluorophenyl)amino]sulfonyl}carbamoyl)piperidin-1-yl]-2-[(2-oxopyrrolidin-1-yl)methyl]nicotinate], `CC(C)OC(=O)c1cc(C#N)c(N2CCC(C(=O)NS(=O)(=O)Cc3ccc(F)cc3)CC2)nc1CN1CCCC1=O` [Example 51, Isopropyl 5-cyano-6-(4-{[(4-fluorobenzyl)sulfonyl]carbamoyl}piperidin-1-yl)-2-[(2-oxopyrrolidin-1-yl)methyl]nicotinate] is 1.7-fold lower in IC50: 0.038 µM for the first, 0.023 µM for the second.

First: CCOC(=O)c1cc(C#N)c(N2CC(C(=O)NS(=O)(=O)Cc3ccccc3)C2)nc1CN=[N+]=[N-] [Example 9, Ethyl 2-(azidomethyl)-6-{3-[(benzylsulfonyl)carbamoyl]azetidin-1-yl}-5-cyanonicotinate]
Second: CCOC(=O)c1cc(C#N)c(N2CCC(C(=O)NS(=O)(=O)Cc3ccccc3)CC2)nc1CN=[N+]=[N-] [Example 11, Ethyl 2-(azidomethyl)-6-{4-[(benzylsulfonyl)carbamoyl]piperidin-1-yl}-5-cyanonicotinate]
The IC50 of the first is 2.8-fold higher: 0.069 µM for the first, 0.025 µM for the second.

Going from `CC(C)OC(=O)c1cc(C#N)c(N2CCC(C(=O)NS(=O)(=O)Cc3ccc(C(F)(F)F)cc3)CC2)nc1CN1CCCC1=O` [Example 50, Isopropyl 5-cyano-2-[(2-oxopyrrolidin-1-yl)methyl]-6-[4-({[4-(trifluoromethyl)benzyl]sulfonyl}carbamoyl)piperidin-1-yl]nicotinate] to `CC(C)OC(=O)c1cc(C#N)c(N2CCC(C(=O)NS(=O)(=O)Cc3ccc(Cl)cc3)CC2)nc1CN1CCCC1=O` [Example 48, Isopropyl 6-(4-{[(4-chlorobenzyl)sulfonyl]carbamoyl}piperidin-1-yl)-5-cyano-2-[(2-oxopyrrolidin-1-yl)methyl]nicotinate], the IC50 falls from 0.02 µM to 0.012 µM (1.7-fold). The second is the more potent here.

Going from `CCOC(=O)c1cc(C#N)c(N2CCC(C(=O)NS(=O)(=O)Cc3ccc(F)cc3F)CC2)nc1CN1CCCC1=O` [Example 38, Ethyl 5-cyano-6-(4-{[(2,4-difluorobenzyl)sulfonyl]carbamoyl}piperidin-1-yl)-2-[(2-oxopyrrolidin-1-yl)methyl]nicotinate] to `CC(C)OC(=O)c1cc(C#N)c(N2CCC(C(=O)NS(=O)(=O)Cc3ccc(F)cc3F)CC2)nc1CN1CCCC1=O` [Example 46, Isopropyl 5-cyano-6-(4-{[(2,4-difluorobenzyl)sulfonyl]carbamoyl}piperidin-1-yl)-2-[(2-oxopyrrolidin-1-yl)methyl]nicotinate], the IC50 rises from 0.0033 µM to 0.021 µM (6.4-fold).

First: CCSC(=O)c1cc(C#N)c(N2CCC(C(=O)NS(=O)(=O)Cc3ccc(C)cc3)CC2)nc1CN1CCCC1=O [Example 98, S-Ethyl 5-cyano-6-(4-{[(4-methylbenzyl)sulfonyl]carbamoyl}piperidin-1-yl)-2-[(2-oxopyrrolidin-1-yl)methyl]pyridine-3-carbothioate]
Second: CCOC(=O)c1cc(C#N)c(N2CCC(C(=O)NS(=O)(=O)Cc3ccc([Si](C)(C)C)cc3)CC2)nc1CN1CCCC1=O [Example 100, Ethyl 5-cyano-2-[(2-oxopyrrolidin-1-yl)methyl]-6-[4-({[4-(trimethylsilyl)benzyl]sulfonyl}carbamoyl)piperidin-1-yl]nicotinate]
The IC50 of the first is 33-fold higher: 4.53 µM for the first, 0.138 µM for the second. The second is the more potent here.

Going from `CC(C)OC(=O)c1cc(C#N)c(N2CCC(C(=O)NS(=O)(=O)Cc3ccccc3)CC2)nc1CN1CCCCC1=O` [Example 70, Isopropyl 6-{4-[(benzylsulfonyl)carbamoyl]piperidin-1-yl}-5-cyano-2-[(2-oxopiperidin-1-yl)methyl]nicotinate] to `CCOC(=O)c1cc(C#N)c(N2CCC(C(=O)NS(=O)(=O)N(C)c3ccccc3)CC2)nc1CN1CCCCC1=O` [Example 71, Ethyl 5-cyano-6-[4-({[methyl(phenyl)amino]sulfonyl}carbamoyl)piperidin-1-yl]-2-[(2-oxopiperidin-1-yl)methyl]nicotinate], the IC50 falls from 0.102 µM to 0.036 µM (2.8-fold).

Going from `CCOC(=O)c1cc(F)c(N2CCC(C(=O)NS(=O)(=O)Cc3ccccc3)CC2)nc1CN1CCCC1=O` [Example 127, Ethyl 6-{4-[(benzylsulfonyl)carbamoyl]piperidin-1-yl}-5-fluoro-2-[(2-oxopyrrolidin-1-yl)methyl]nicotinate] to `CCCOC(=O)c1cc(F)c(N2CCC(C(=O)NS(=O)(=O)Cc3ccccc3)CC2)nc1CN1CCCC1=O` [Example 130, Propyl 6-{4-[(benzylsulfonyl)carbamoyl]piperidin-1-yl}-5-fluoro-2-[(2-oxopyrrolidin-1-yl)methyl]nicotinate], the IC50 rises from 0.079 µM to 0.122 µM (1.5-fold).

`CC(C)OC(=O)c1cc(C#N)c(N2CCC(C(=O)NS(=O)(=O)N(C)c3ccc(F)cc3)CC2)nc1CN1CCCC1=O` [Example 79, Isopropyl 5-cyano-6-[4-({[(4-fluorophenyl)(methyl)amino]sulfonyl}carbamoyl)piperidin-1-yl]-2-[(2-oxopyrrolidin-1′-yl)methyl]nicotinate] and `CCOC(=O)c1cc(C#N)c(N2CCC(C(=O)NS(=O)(=O)N(C)c3ccccc3)CC2)nc1CN1CCCC1=O` [Example 57, Ethyl 5-cyano-6-[4-({[methyl(phenyl)amino]sulfonyl}carbamoyl)piperidin-1-yl]-2-[(2-oxopyrrolidin-1-yl)methyl]nicotinate] are within 1.5-fold of each other in IC50: 0.014 µM for the first, 0.013 µM for the second.

Going from `CCOC(=O)CSc1nc(N2CCC(C(=O)NS(=O)(=O)CC3CCCC3)CC2)c(C#N)cc1C(=O)OCC` [Example 110, Ethyl 5-cyano-6-(4-{[(cyclopentylmethyl)sulfonyl]carbamoyl}piperidin-1-yl)-2-[(2-ethoxy-2-oxoethyl)thio]nicotinate] to `CCOC(=O)c1cc(C#N)c(N2CCC(C(=O)NS(=O)(=O)CC3CCCCC3)CC2)nc1CN1CCCC1=O` [Example 65, Ethyl 5-cyano-6-(4-{[(cyclohexylmethyl)sulfonyl]carbamoyl}piperidin-1-yl)-2-[(2-oxopyrrolidin-1-yl)methyl]nicotinate], the IC50 falls from 0.053 µM to 0.021 µM (2.5-fold).

Compared with `CCOC(=O)c1cc(C#N)c(N2CC(C(=O)NS(=O)(=O)Cc3ccccc3)C2)nc1COC(=O)CO` [Example 14, Ethyl 6-{3-[(benzylsulfonyl)carbamoyl]azetidin-1-yl}-5-cyano-2-[(glycoloyloxy)methyl]nicotinate], `CCOC(=O)c1cc(C#N)c(N2CC(C(=O)NS(=O)(=O)Cc3ccccc3)C2)nc1CS(C)(=O)=O` [Example 10, Ethyl 6-{3-[(benzylsulfonyl)carbamoyl]azetidin-1-yl}-5-cyano-2-[(methylsulfonyl)methyl]nicotinate] is 5.5-fold higher in IC50: 0.044 µM for the first, 0.243 µM for the second.

Going from `CCOC(=O)c1cc(C#N)c(N2CCC(C(=O)NS(=O)(=O)Cc3ccccc3)CC2)nc1CSCCC(=O)OC` [Example 119, Ethyl 6-{4-[(benzylsulfonyl)carbamoyl]piperidin-1-yl}-5-cyano-2-{[(3-methoxy-3-oxopropyl)thio]methyl}nicotinate] to `CCOC(=O)CSCc1nc(N2CCC(C(=O)NS(=O)(=O)Cc3ccccc3)CC2)c(C#N)cc1C(=O)OCC` [Example 122, Ethyl 6-{4-[(benzylsulfonyl)carbamoyl]piperidin-1-yl}-5-cyano-2-{[(2-ethoxy-2-oxoethyl)thio]methyl}nicotinate], the IC50 rises from 0.042 µM to 0.077 µM (1.8-fold). The first is the more potent here.

`CCOC(=O)c1cc(C#N)c(N2CCC(C(=O)NS(=O)(=O)Cc3ccccc3)CC2)nc1OC(C)=O` [Example 2, Ethyl 2-acetoxy-6-{4-[(benzylsulfonyl)carbamoyl]piperidin-1-yl}-5-cyanonicotinate] and `CCOC(=O)c1cc(C#N)c(N2CCC(C(=O)NS(=O)(=O)Cc3ccccc3)CC2)nc1CN1C(=O)CCC1=O` [Example 15, Ethyl 6-{4-[(benzylsulfonyl)carbamoyl]piperidin-1-yl}-5-cyano-2-[(2,5-dioxopyrrolidin-1-yl)methyl]nicotinate] are within 1.5-fold of each other in IC50: 0.024 µM for the first, 0.017 µM for the second.

Going from `CCOC(=O)c1cc(Cl)c(N2CCC(C(=O)NS(=O)(=O)Cc3ccccc3)CC2)nc1SCCNC(C)=O` [Example 105, Ethyl 2-[(2-acetamidoethyl)thio]-6-{4-[(benzylsulfonyl)carbamoyl]piperidin-1-yl}-5-chloronicotinate] to `CC(C)OC(=O)c1cc(C#N)c(N2CCC(C(=O)NS(=O)(=O)Cc3ccc(Cl)cc3F)CC2)nc1CN1CCCC1=O` [Example 52, Isopropyl 6-(4-{[(4-chloro-2-fluorobenzyl)sulfonyl]carbamoyl}piperidin-1-yl)-5-cyano-2-[(2-oxopyrrolidin-1-yl)methyl]nicotinate], the IC50 falls from 0.048 µM to 0.014 µM (3.4-fold). The second is the more potent here.

`CC1CCC(CS(=O)(=O)NC(=O)C2CCN(c3nc(CN4CCCC4=O)c(C(=O)OC(C)C)cc3C#N)CC2)CC1` (stereo not shown) [Example 54, Isopropyl 5-cyano-6-[4-({[(4-methylcyclohexyl)methyl]sulfonyl}carbamoyl)piperidin-1-yl]-2-[(2-oxopyrrolidin-1-yl)methyl]nicotinate] and `CC(C)OC(=O)c1cc(C#N)c(N2CCC(C(=O)NS(=O)(=O)CC3CCC3)CC2)nc1CN1CCCC1=O` [Example 81, Isopropyl 5-cyano-6-(4-{[(cyclobutylmethyl)sulfonyl]carbamoyl}piperidin-1-yl)-2-[(2-oxopyrrolidin-1-yl)methyl]nicotinate] are within 1.5-fold of each other in IC50: 0.104 µM for the first, 0.094 µM for the second.
